For orientation: Ki means the dissociation constant of the complex between target and ligand, obtained from inhibition or displacement. As usually defined, the IC50 is the concentration that inhibits the measured activity by half. Read a low IC50 as greater potency.

The results in this text go back to ChEMBL document CHEMBL1142773, “1-(4-Amino-phenyl)-pyrrolidin-3-yl-amine and 6-(3-amino-pyrrolidin-1-yl)-pyridin-3-yl-amine derivatives as melanin-concentrating hormone receptor-1 antagonists” (Bioorg Med Chem Lett, 2005).

The structures appear in SMILES notation.

The target in one assay is T1, Melanin-concentrating hormone receptor 1 (Homo sapiens, UniProt Q99705). The experiment in a line: Binding affinity towards human MCH-R1 evaluated by its ability to displace radioligand [125I]Tyr13]-MCH.
T1 sequence (Q99705 whole entry): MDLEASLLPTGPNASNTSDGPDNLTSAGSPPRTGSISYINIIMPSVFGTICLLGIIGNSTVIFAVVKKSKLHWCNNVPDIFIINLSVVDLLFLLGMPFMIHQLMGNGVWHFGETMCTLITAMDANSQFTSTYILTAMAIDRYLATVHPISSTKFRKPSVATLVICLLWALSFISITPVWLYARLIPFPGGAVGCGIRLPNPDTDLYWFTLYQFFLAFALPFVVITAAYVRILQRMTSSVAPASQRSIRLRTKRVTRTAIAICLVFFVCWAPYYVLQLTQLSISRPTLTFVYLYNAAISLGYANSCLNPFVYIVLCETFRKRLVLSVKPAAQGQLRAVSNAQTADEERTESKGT
For the molecule `CN(Cc1ccccn1)C1CCN(c2ccc(NC(=O)c3ccc(-c4ccccc4)cc3)cc2)C1` (stereo unspecified), the inhibitory constant (Ki) stood at 130 nM.
Same read-out and setting: as for `CN(C)C1CCN(c2ccc(NC(=O)c3ccc(-c4cccs4)cc3)cc2)C1` (stereo unspecified), the figure is 34 nM; as for `CN(C)C1CCN(c2ccc(NC(=O)c3ccc(N4CCCCC4)nc3)cc2)C1` (stereo unspecified), 2400 nM.
Still for that read-out and setting: as for `COc1ccc(-c2ccc(C(=O)Nc3ccc(N4CCC(N(C)C)C4)cc3)cn2)cc1` (stereo unspecified), the figure is 16 nM.
On the same count and under the same terms, as for `CN(C)C1CCN(c2ccc(NC(=O)c3ccc(-c4ccccc4)cc3)cc2)C1` (stereo unspecified), the figure is 5.2 nM; as for `CN(C)C1CCN(c2ccc(NC(=O)c3ccc4c(c3)C(=O)c3ccccc3-4)cc2)C1` (stereo unspecified), above 10000 nM.
`CN(C)C1CCN(c2ccc(NC(=O)c3ccc(-c4ccccc4)nc3)cc2)C1` (stereo unspecified): the Ki came out at 110 nM.
Still for that read-out and setting: as for `CN(C)C1CCN(c2ccc(NC(=O)c3ccc(-n4ccnc4)cc3)cc2)C1` (stereo unspecified), the figure is above 10000 nM; as for `CN(CCCc1ccccc1)C1CCN(c2ccc(NC(=O)c3ccc(-c4ccccc4)cc3)cc2)C1` (stereo unspecified), 8.6 nM.
Molecule `CNC1CCN(c2ccc(NC(=O)c3ccc(-c4ccccc4)cc3)cc2)C1` (stereo unspecified) displayed a Ki of 3.1 nM.
Take `CN(C)C1CCN(c2ccc(NC(=O)C3CCC(c4ccccc4)CC3)cc2)C1` (stereo unspecified): the affinity, expressed as Ki, was 14 nM. Compared with the last molecule, the Ki is about 4.5-fold higher.
Still for that read-out and setting: as for `COc1ccc(CCCNC(=O)Nc2ccc(N3CCC(N(C)C)C3)cc2)cc1` (stereo unspecified), the figure is 52 nM.
`CN(C)C1CCN(c2ccc(NC(=O)CCCC(=O)c3ccccc3)cc2)C1` (stereo unspecified) had a Ki of 250 nM.
On the same count and under the same terms, the result for `CN(C)C1CCN(c2ccc(NC(=O)NCCCc3ccccc3)cc2)C1` (stereo unspecified) reads 43 nM.
Regarding `CN(CC1CC1)C1CCN(c2ccc(NC(=O)c3ccc(-c4ccccc4)cc3)cc2)C1` (stereo unspecified), the Ki worked out at 5.5 nM.
The molecule `CCN1CCN(c2ccc(C(=O)Nc3ccc(N4CCC(N(C)C)C4)cc3)cn2)CC1` (stereo unspecified) yielded a Ki above 10000 nM.
In turn, `CCN(C)C1CCN(c2ccc(NC(=O)c3ccc(-c4ccccc4)cc3)cc2)C1` (stereo unspecified) had a Ki of 5.9 nM.
The same measure, in the same setting: the result for `CN(C)C1CCN(c2ccc(NC(=O)Cc3ccc(-c4ccccc4)cc3)cc2)C1` (stereo unspecified) reads 4300 nM.
The molecule `CN(C)C1CCN(c2ccc(NC(=O)c3ccc(Oc4ccccc4)cc3)cc2)C1` (stereo unspecified) came in with a Ki above 10000 nM.
Consider `CN(C)C1CCN(c2ccc(NC(=O)C3CCC(c4ccc(Cl)cc4)CC3)cc2)C1` (stereo unspecified), for which the Ki came out at 12 nM.
The molecule `CN(C(=O)OC(C)(C)C)C1CCN(c2ccc(NC(=O)c3ccc(-c4ccccc4)cc3)cc2)C1` (stereo unspecified) gave a Ki above 10000 nM.
On to `CN(C)C1CCN(c2ccc(NC(=O)c3ccc(-c4cnco4)cc3)cc2)C1` (stereo unspecified), for which the Ki is above 10000 nM.
The molecule `CC(=O)N(C)C1CCN(c2ccc(NC(=O)c3ccc(-c4ccccc4)cc3)cc2)C1` (stereo unspecified) returned a Ki of 3000 nM.
On to `CN(C)C1CCN(c2ccc(NC(=O)CCC(=O)c3ccc(Cl)cc3)cc2)C1` (stereo unspecified), for which the Ki was found to be 13 nM. This Ki lies about 230-fold lower than the previous one.
On to `CN(Cc1ccccc1)C1CCN(c2ccc(NC(=O)c3ccc(-c4ccccc4)cc3)cc2)C1` (stereo unspecified), for which the affinity, expressed as Ki, was 31 nM.

A further assay deals with T1, Melanin-concentrating hormone receptor 1. The experiment in a line: Inhibitory concentration against human MCH-R1-stimulated [Ca2+] influx.
The molecule `CNC1CCN(c2ccc(NC(=O)c3ccc(-c4ccccc4)cc3)cc2)C1` (stereo unspecified) yielded an IC50 of 166 nM. In other words, the sub-micromolar range.
